Measurements as given in patent publication US20170042924A1, “MUSCLE ATROPHY INHIBITOR CONTAINING QUERCETIN GLYCOSIDE” (SUNTORY HOLDINGS LIMITED, priority 2014, published 2017).

Assays:
[1] = test system: Foxo1; assay: Foxo1 expression in gastrocnemius tissue, forced oral administration test; type: in vivo, mice; settings: 200 mg/kg QG or equivalent amount of quercetin, with DEX 10 mg/L in drinking water, compared to the DEX group, FIG. 4
Description: (§1) Thereafter, for the purpose of a detailed analysis of the molecular mechanisms, the expression of genes involved in muscle atrophy in gastrocnemius tissue was analyzed. RNA was extracted from the cryopreserved gastrocnemius samples using ISOGEN (Nippon Gene Co., Ltd.) and the RNeazy Mini Kit (Qiagen). Then, cDNA synthesis was conducted using the High-Capacity cDNA Reverse Transcriptional Kits (Applied biosystems). Based on the constructed cDNAs, the messenger RNA (mRNA) levels of the muscle atrophy-related genes (Atrogin-1, MuRF-1, Foxo1, Redd1, and Mstn) and the control gene (18SrRNA) were determined by quantitative reverse transcription PCR using the TaqMan Fast Universal PCR Master Mix (Applied biosystems). The values obtained were expressed as mean±standard deviation. The differences in average gene expression levels between the DEX group and each of the DEX+QG groups were analyzed by Student's t-test, with p-values below 5% being considered significant. BALB/c male mice aged 7 weeks were habituated for one week, and then allowed to ingest 10 mg/L dexamethasone (DEX) in drinking water ad libitum. […] The differences in average gene expression levels between the DEX group and each of the DEX+QG group and the DEX+Q group were analyzed by Dunnett's test, with p-values below 5% being considered significant.

[2] = test system: Redd1; assay: Redd1 expression in gastrocnemius tissue, forced oral administration test; type: in vivo, mice; settings: 200 mg/kg QG or equivalent amount of quercetin, with DEX 10 mg/L in drinking water, compared to the DEX group, FIG. 4
Description: as §1

[3] = test system: MuRF-1; assay: MuRF-1 expression in gastrocnemius tissue, forced oral administration test; type: in vivo, mice; settings: 200 mg/kg QG or equivalent amount of quercetin, with DEX 10 mg/L in drinking water, compared to the DEX group, FIG. 4
Description: as §1

[4] = test system: BALB/c male mice; assay: Dexamethasone-induced muscle atrophy, forced oral administration test, gastrocnemius weight/body weight ratio; type: in vivo; settings: 200 mg/kg QG or equivalent amount of quercetin in terms of rutin, with DEX 10 mg/L in drinking water, compared to the DEX group, FIG. 3
Description: BALB/c male mice aged 7 weeks were habituated for one week, and then allowed to ingest 10 mg/L dexamethasone (DEX) in drinking water ad libitum. Next, 200 mg/kg quercetin glycoside (QG) and an equivalent amount of quercetin (Q) in terms of rutin were each suspended in milliQ water containing 0.5% carboxymethyl cellulose sodium salt, and the suspensions were each forcibly administered orally […] to the mice for five days (from Monday to Friday). Then, administration of 10 mg/L DEX in drinking water was started from Friday. In the next week, forced oral QG/Q administration was resumed (from Monday to Thursday) concurrently with DEX administration in drinking water, and the mice were dissected on Friday. Sample collection after the administration test, muscle atrophy evaluation based on gastrocnemius weight (GW)/body weight (BW) ratio, and gene expression level analysis in gastrocnemius tissue were performed according to the procedures described in Examples 1 and 2. The differences in average gene expression levels between the DEX group and each of the DEX+QG group and the DEX+Q group were analyzed by Dunnett's test, with p-values below 5% being considered significant.

Q: O=c1c(O)c(-c2ccc(O)c(O)c2)oc2cc(O)cc(O)c12 [quercetin] was tested. Which “expression of Foxo1 increased by DEX administration” value [1] did it give?
A: The value was “not effective in inhibiting the expression”.

Q: And the “expression of Redd1 increased by DEX administration” value [2]?
A: Its value is “not effective in inhibiting the expression”.

Q: What about the “expression of MuRF-1 increased by DEX administration” value [3] of the same molecule?
A: The value was “not effective in inhibiting the expression”.

Q: And the “GW/BW ratio (gastrocnemius weight divided by body weight)” value [4]?
A: Its value is “not effective in improving the GW/BW ratio”.
